Test results from US20180057462A1, “Substituted 2-difluoromethyl-nicotin(thio)carboxanilide derivatives and their use as fungicides” (BAYER CROPSCIENCE AKTIENGESELLSCHAFT, priority 2015, published 2018).

assay: LogP by HPLC on reversed phase columns (EEC directive 79/831 Annex V.A8), method [a]; type: physicochemical; details: LC-UV, acidic range, 0.1% formic acid in water and acetonitrile as eluent (linear gradient 10% to 95% acetonitrile)

LogP[a]	SMILES
3.06	Cc1c(NC(=O)c2cccnc2C(F)F)cccc1OC(C)C1(Cl)CC1 (stereo not drawn) [Example 25]
3.17	Cc1c(NC(=O)c2cccnc2C(F)F)cccc1OCCC1CC1 [Example 26]
2.26	Cc1c(NC(=O)c2cccnc2C(F)F)cccc1OC(C)C1CCOC1 (stereo not drawn) [Example 27]
2.49	CO/N=C\C(C)Oc1cccc(NC(=O)c2cccnc2C(F)F)c1C (stereo not drawn) [Example 28]
2.82	CCO/N=C\C(C)Oc1cccc(NC(=O)c2cccnc2C(F)F)c1C (stereo not drawn) [Example 29]
3.33	Cc1c(NC(=O)c2cccnc2C(F)F)cccc1OC(C)COc1ccccc1 (stereo not drawn) [Example 30]
3.68	Cc1ccc(OCC(C)Oc2cccc(NC(=O)c3cccnc3C(F)F)c2C)cc1 (stereo not drawn) [Example 31]
3.74	Cc1ccccc1OCC(C)Oc1cccc(NC(=O)c2cccnc2C(F)F)c1C (stereo not drawn) [Example 32]
3.68	Cc1cccc(OCC(C)Oc2cccc(NC(=O)c3cccnc3C(F)F)c2C)c1 (stereo not drawn) [Example 33]
3.76	Cc1c(NC(=O)c2cccnc2C(F)F)cccc1OC(C)COc1cccc(Cl)c1 (stereo not drawn) [Example 34]
3.59	Cc1c(NC(=O)c2cccnc2C(F)F)cccc1OC(C)COc1ccccc1Cl (stereo not drawn) [Example 35]
3.06	Cc1c(NC(=O)c2cccnc2C(F)F)cccc1OCc1ccc(F)cc1 [Example 36]
3.41	Cc1c(NC(=O)c2cccnc2C(F)F)cccc1OCc1ccccc1Cl [Example 37]
3.52	Cc1c(NC(=O)c2cccnc2C(F)F)cccc1OCc1cccc(C(F)(F)F)c1 [Example 38]
3.55	Cc1c(NC(=O)c2cccnc2C(F)F)cccc1OCc1ccccc1C(F)(F)F [Example 39]
3.09	Cc1c(NC(=O)c2cccnc2C(F)F)cccc1OCc1cccc(F)c1 [Example 40]
3.06	Cc1c(NC(=O)c2cccnc2C(F)F)cccc1OCc1ccccc1F [Example 41]

LogP[a]	SMILES
3.96	Cc1c(NC(=O)c2cccnc2C(F)F)cccc1OCc1cc(Cl)cc(Cl)c1 [Example 42]
3.85	Cc1c(NC(=O)c2cccnc2C(F)F)cccc1OCc1cc(Cl)ccc1Cl [Example 43]
3.83	Cc1c(NC(=O)c2cccnc2C(F)F)cccc1OCc1cccc(Cl)c1Cl [Example 45]
3.99	Cc1c(NC(=O)c2cccnc2C(F)F)cccc1OCc1ccc(Cl)cc1Cl [Example 46]
3.65	Cc1c(NC(=O)c2cccnc2C(F)F)cccc1OC(C)c1ccc(Cl)cc1 (stereo not drawn) [Example 47]
4.01	Cc1c(NC(=O)c2cccnc2C(F)F)cccc1OC(C)c1ccc(Cl)c(Cl)c1 (stereo not drawn) [Example 48]
3.29	Cc1c(NC(=O)c2cccnc2C(F)F)cccc1OC(C)c1ccc(F)cc1 (stereo not drawn) [Example 49]
3.79	Cc1c(NC(=O)c2cccnc2C(F)F)cccc1OC(C)c1ccccc1Cl (stereo not drawn) [Example 50]
3.63	Cc1c(NC(=O)c2cccnc2C(F)F)cccc1OC(C)c1cccc(Cl)c1 (stereo not drawn) [Example 51]
3.33	Cc1c(NC(=O)c2cccnc2C(F)F)cccc1OC(C)c1c(F)cccc1F (stereo not drawn) [Example 52]
3.70	Cc1c(NC(=O)c2cccnc2C(F)F)cccc1OC(C)c1cccc(C(F)(F)F)c1 (stereo not drawn) [Example 53]
3.52	Cc1c(NC(=O)c2cccnc2C(F)F)cccc1OCc1cccc(Br)c1 [Example 54]
3.87	Cc1c(NC(=O)c2cccnc2C(F)F)cccc1OC(C)c1ccccc1C(F)(F)F (stereo not drawn) [Example 55]
4.15	Cc1c(NC(=O)c2cccnc2C(F)F)cccc1OC(C)c1cc(Cl)ccc1Cl (stereo not drawn) [Example 56]
3.37	Cc1c(NC(=O)c2cccnc2C(F)F)cccc1OC(C)c1ccccc1F (stereo not drawn) [Example 57]
3.72	Cc1c(NC(=O)c2cccnc2C(F)F)cccc1OCCc1ccc(C(F)(F)F)cc1 [Example 58]

More lines, now with the values behind:

SMILES	LogP[a]
Cc1c(CCC2CC2(Cl)Cl)cccc1NC(=O)c1c(C(F)F)ccnc1C(F)F (stereo not drawn) [Example 1]	3.92
O=C(Nc1cccc(-c2cc(F)ccc2F)c1Cl)c1cccnc1C(F)F [Example 2]	3.11
O=C(Nc1cccc(-c2ccccc2)c1Cl)c1cccnc1C(F)F [Example 3]	3.05
O=C(Nc1cccc(-c2ccccc2F)c1Cl)c1cccnc1C(F)F [Example 4]	2.99
O=C(Nc1cccc(-c2cccc(F)c2)c1Cl)c1cccnc1C(F)F [Example 5]	3.12
O=C(Nc1cccc(-c2ccc(F)cc2)c1Cl)c1cccnc1C(F)F [Example 6]	3.12
O=C(Nc1cccc(-c2ccccc2Cl)c1Cl)c1cccnc1C(F)F [Example 7]	3.22
O=C(Nc1cccc(-c2cccc(Cl)c2)c1Cl)c1cccnc1C(F)F [Example 8]	3.49
O=C(Nc1cccc(-c2ccc(Cl)cc2)c1Cl)c1cccnc1C(F)F [Example 9]	3.54
O=C(Nc1cccc(-c2ccc(F)cc2F)c1Cl)c1cccnc1C(F)F [Example 10]	3.12
CCC(C)Oc1cccc(NC(=O)c2cccnc2C(F)F)c1C (stereo not drawn) [Example 11]	3.02
CCCC(CCC)Oc1cccc(NC(=O)c2cccnc2C(F)F)c1C [Example 12]	4.26
Cc1c(NC(=O)c2cccnc2C(F)F)cccc1OCC(C)C [Example 13]	3.17
Cc1c(NC(=O)c2cccnc2C(F)F)cccc1OC(C)C(C)C (stereo not drawn) [Example 14]	3.41
Cc1c(NC(=O)c2cccnc2C(F)F)cccc1OC(C)CC(C)C (stereo not drawn) [Example 15]	3.79
Cc1c(NC(=O)c2cccnc2C(F)F)cccc1OC1CCCCC1 [Example 16]	3.52
Cc1c(NC(=O)c2cccnc2C(F)F)cccc1OCc1ncc(C(F)(F)F)cc1Cl [Example 17]	3.23
Cc1c(NC(=O)c2cccnc2C(F)F)cccc1Oc1ncc(C(F)(F)F)cc1Cl [Example 18]	3.48
Cc1c(NC(=O)c2cccnc2C(F)F)cccc1OCc1ccc(Br)cc1 [Example 19]	3.55
CCOCC(C)Oc1cccc(NC(=O)c2cccnc2C(F)F)c1C (stereo not drawn) [Example 20]	2.57
C#CCOCC(C)Oc1cccc(NC(=O)c2cccnc2C(F)F)c1C (stereo not drawn) [Example 21]	2.47
CCCOCC(C)Oc1cccc(NC(=O)c2cccnc2C(F)F)c1C (stereo not drawn) [Example 22]	3.04
Cc1c(NC(=O)c2cccnc2C(F)F)cccc1OC(C)COCC(C)C (stereo not drawn) [Example 23]	3.55
Cc1c(NC(=O)c2cccnc2C(F)F)cccc1OC(C)COC(C)(C)C (stereo not drawn) [Example 24]	3.31
